Measurements from PubChem BioAssay (NCI).
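Method: 48-hour compound exposure of cells in 96-well plates, five concentrations, linear interpolation of endpoints. TGI: concentration producing complete growth inhibition.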

Key:
Experiment in all cases: DTP human tumour cell line panel, 48 h
786-0 renal = tested on: 786-0 renal
A498 renal = tested on: A498 renal
A549 NSCLC = tested on: A549 NSCLC
ACHN renal = tested on: ACHN renal
CAKI-1 renal = tested on: CAKI-1 renal
CCRF-CEM leukemia = tested on: CCRF-CEM leukemia
COLO 205 colon = tested on: COLO 205 colon
DLD-1 colon = tested on: DLD-1 colon
DMS 114 small cell lung = tested on: DMS 114 small cell lung
DMS 273 small cell lung = tested on: DMS 273 small cell lung
EKVX NSCLC = tested on: EKVX NSCLC
HCC-2998 colon = tested on: HCC-2998 colon
HCT-116 colon = tested on: HCT-116 colon
HCT-15 colon = tested on: HCT-15 colon
HL-60(TB) leukemia = tested on: HL-60(TB) leukemia
HOP-62 NSCLC = tested on: HOP-62 NSCLC
HOP-92 NSCLC = tested on: HOP-92 NSCLC
HT29 colon = tested on: HT29 colon
IGROV1 ovarian = tested on: IGROV1 ovarian
K-562 leukemia = tested on: K-562 leukemia
KM12 colon = tested on: KM12 colon
KM20L2 colon = tested on: KM20L2 colon
LOX IMVI melanoma = tested on: LOX IMVI melanoma
LXFL 529 NSCLC = tested on: LXFL 529 NSCLC
M14 melanoma = tested on: M14 melanoma
M19-MEL melanoma = tested on: M19-MEL melanoma
MOLT-4 leukemia = tested on: MOLT-4 leukemia
NCI-H226 lung = tested on: NCI-H226 lung
NCI-H23 lung = tested on: NCI-H23 lung
NCI-H460 lung = tested on: NCI-H460 lung
NCI-H522 lung = tested on: NCI-H522 lung
OVCAR-4 ovarian = tested on: OVCAR-4 ovarian
OVCAR-5 ovarian = tested on: OVCAR-5 ovarian
OVCAR-8 ovarian = tested on: OVCAR-8 ovarian
RPMI-8226 leukemia = tested on: RPMI-8226 leukemia
RXF 393 renal = tested on: RXF 393 renal
SF-268 CNS = tested on: SF-268 CNS
SF-295 CNS = tested on: SF-295 CNS
SF-539 CNS = tested on: SF-539 CNS
SK-MEL-28 melanoma = tested on: SK-MEL-28 melanoma
SK-MEL-5 melanoma = tested on: SK-MEL-5 melanoma
SK-OV-3 ovarian = tested on: SK-OV-3 ovarian
SN12C renal = tested on: SN12C renal
SNB-19 CNS = tested on: SNB-19 CNS
SNB-75 CNS = tested on: SNB-75 CNS
SR leukemia = tested on: SR leukemia
SW-620 colon = tested on: SW-620 colon
TK-10 renal = tested on: TK-10 renal
U251 CNS = tested on: U251 CNS
UACC-257 melanoma = tested on: UACC-257 melanoma
UACC-62 melanoma = tested on: UACC-62 melanoma
UO-31 renal = tested on: UO-31 renal
XF 498 CNS = tested on: XF 498 CNS
MALME-3M melanoma = tested on: MALME-3M melanoma
OVCAR-3 ovarian = tested on: OVCAR-3 ovarian
SK-MEL-2 melanoma = tested on: SK-MEL-2 melanoma
SNB-78 CNS = tested on: SNB-78 CNS

Measured: TGI

Cn1c(=O)n(C2(C)CSC2)c2ccccc21
> 100 µM: 786-0 renal | A498 renal | A549 NSCLC | ACHN renal | CAKI-1 renal | CCRF-CEM leukemia | COLO 205 colon | DLD-1 colon | DMS 114 small cell lung | DMS 273 small cell lung | EKVX NSCLC | HCC-2998 colon | HCT-116 colon | HCT-15 colon | HL-60(TB) leukemia | HOP-62 NSCLC | HOP-92 NSCLC | HT29 colon | IGROV1 ovarian | K-562 leukemia | KM12 colon | KM20L2 colon | LOX IMVI melanoma | LXFL 529 NSCLC | M14 melanoma | M19-MEL melanoma | MOLT-4 leukemia | NCI-H226 lung | NCI-H23 lung | NCI-H460 lung | NCI-H522 lung | OVCAR-4 ovarian | OVCAR-5 ovarian | OVCAR-8 ovarian | RPMI-8226 leukemia | RXF 393 renal | SF-268 CNS | SF-295 CNS | SF-539 CNS | SK-MEL-28 melanoma | SK-MEL-5 melanoma | SK-OV-3 ovarian | SN12C renal | SNB-19 CNS | SNB-75 CNS | SR leukemia | SW-620 colon | TK-10 renal | U251 CNS | UACC-257 melanoma | UACC-62 melanoma | UO-31 renal | XF 498 CNS

Clc1ccccc1C1SCc2nc3ccccc3n21 (configuration not stated)
60.5 µM: RXF 393 renal
79.4 µM: OVCAR-5 ovarian
81.9 µM: EKVX NSCLC
54.8 µM: U251 CNS
53.6 µM: SNB-78 CNS
57.1 µM: SK-MEL-2 melanoma
59.6 µM: SR leukemia
81.8 µM: LOX IMVI melanoma
71.6 µM: TK-10 renal
> 100 µM: A549 NSCLC | ACHN renal | CAKI-1 renal | CCRF-CEM leukemia | COLO 205 colon | DLD-1 colon | HCT-15 colon | HT29 colon | IGROV1 ovarian | K-562 leukemia | KM12 colon | LXFL 529 NSCLC | M19-MEL melanoma | MOLT-4 leukemia | NCI-H23 lung | NCI-H460 lung | OVCAR-4 ovarian | OVCAR-8 ovarian | RPMI-8226 leukemia | SF-268 CNS | SF-295 CNS | SF-539 CNS | SW-620 colon
56.3 µM: HCT-116 colon
59.9 µM: M14 melanoma
64.6 µM: HOP-62 NSCLC
53.4 µM: MALME-3M melanoma
40.6 µM: SNB-19 CNS
70.6 µM: NCI-H226 lung
31.3 µM: HOP-92 NSCLC
88 µM: 786-0 renal
42.3 µM: HL-60(TB) leukemia
33.7 µM: SK-MEL-5 melanoma
76.4 µM: SK-MEL-28 melanoma
29.5 µM: OVCAR-3 ovarian
51.8 µM: SN12C renal
11.3 µM: SNB-75 CNS
49.5 µM: NCI-H522 lung
82.7 µM: SK-OV-3 ovarian
87.2 µM: XF 498 CNS
